In PMC7127144 (Bioorganic & Medicinal Chemistry, 2006):

Assays:
in vitro [1] = details: human
in vitro [2] = details: human; remark: listed apart in the source
[3] = tested on: Punta Toro virus (strain Adames)
SARSCoV = assay: organism not typed; type: cell-based; details: read-out: SARSCoV IC50
HIV-1 (strain LAI) = type: cell-based
PBM cells = details: human

| SMILES | IC50 (in vitro [1]) [µM] | IC50 (in vitro [2]) [µM] | Cytotoxicity in the Punta Toro virus assay (in words) [3] | IC50 (SARSCoV) [µM] | Anti-HIV activity (in words) (HIV-1 (strain LAI)) | IC50 (PBM cells) [µM] |
| --- | --- | --- | --- | --- | --- | --- |
| Nc1nc(O)c2[nH]cc([C@@H]3C=C(CO)[C@@H](O)[C@H]3O)c2n1 [Compound 2, (1′S,2′S,3′R)-9-(2′,3′-Dihydroxy-4′-hydroxymethyl-4′-cyclopenten-1′-yl)-deazaguanosine] | > 100 | > 100 | without any cytotoxicity | > 100 | – | – |
| Nc1ncnc2c([C@@H]3C=C(CO)[C@@H](O)[C@H]3O)c[nH]c12 [Compound 1, (1′S,2′S,3′R)-4-Amino-7-(2′,3′-dihydroxy-4′-hydroxymethyl-4′-cyclopenten-1′-yl)-5H-pyrrolo[3,2-d]pyrimidine] | – | – | – | – | moderate anti-HIV activity | – |
| Nc1nc(=O)c([C@@H]2C=C(CO)[C@@H](O)[C@H]2O)c[nH]1 [Compound 3, (1′S,2′S,3′R)-5-(2′,3′-Dihydroxy-4′-hydroxymethyl-4′-cyclopenten-1′-yl)-isocytosine] | > 100 | > 100 | – | > 100 | – | – |
| Cc1cn([C@H]2C[C@H](N=[N+]=[N-])[C@@H](CO)O2)c(=O)[nH]c1=O [AZT] | – | – | – | – | – | > 100 |
| O=c1[nH]cc([C@@H]2C=C(CO)[C@@H](O)[C@H]2O)c(=O)[nH]1 [Compound 4, (1′S,2′S,3′R)-5-(2′,3′-Dihydroxy-4′-hydroxymethyl-4′-cyclopenten-1′-yl)uracil] | > 100 | > 100 | without any cytotoxicity | > 100 | – | – |
